Positions of bridges follow the written chain, without caps; N, C: chain ends. No end group written: not given here.
How the values were obtained:
[1] = Ex vivo NIR fluorescence brain imaging after ip injection (brain penetration); type: in vivo, mouse; settings: wild-type mice, 0, 0.6, 2, 10, 20 mg/kg single ip dose, 2 h, n = 3 per dose
Text: Blood brain barrier (BBB) penetration can limit the potential of long sequence peptides as therapeutic agents in central nervous system (CNS). Previously, we have reported that a cyclized form of AC253 peptide and to a lesser degree its linear form can both penetrate the BBB at therapeutically relevant levels, and are localized to the hippocampus and cortex, regions relevant to memory and learning processes. Therefore, we examined the ability of Cy5.5 labeled peptide fragments (R5, and R14) to penetrate BBB in wild-type mice using NIR fluorescence ex vivo brain imaging. Brain fluorescence resulting from either R5 or R14 was assessed against full length AC253 2 h after a single intraperitoneal (ip) injection of peptides. […] Fluorescence signals were distributed throughout the cortex, but particularly strong within the hippocampal regions, where a very high density of amylin receptor expression has been reported. […]
In vivo brain penetration and pharmacokinetics of the peptides were determined in 6-month-old male or female wild-type (C57BL/6 background) and heterozygous CTR mice (het-CTR). […]
For ex vivo imaging experiments and peptide brain uptake, we used age matched 6-month-old wild-type littermate (C57BL/6 background) mice. […] Region of interest was drawn around the brain region and analyzed using the Kodak ID 3.6 software and the mean fluorescence intensity was recorded. […]

[2] = In vitro proteolytic stability in human serum; type: in vitro ADME; settings: 37°C, intact peptide at different time points estimated by RP-HPLC
Description: Subsequently, we investigated the proteolytic stability of R5, and R14 compared to AC253. […] By assessing the main degradation fragments for both peptides using MALDI-TOF, we found both peptides to be cleaved at the basic arginine amino acids.
Supplementary Figure S2: The comparison of bio-distribution for the fragments and their parent peptide. (A) Ex vivo fluorescence showing bio-distribution images for Cy5.5-R5, R14, AC253 in different organs at after a 2 h of a single ip injection of the peptides (0.1 mmol in 200µl saline). (B) Quantification of peptides fluorescence in each organ (n=3). (C) In vitro stability of R5, R14, and AC253 peptides in human serum compared with AC253 at 37°C. The amount of intact peptide in human serum at different time points was estimated using RP-HPLC.

hippocampal LTP (CA1) = assay: Hippocampal long-term potentiation (LTP) in slices from wild type mice; parameters: species or system mouse; settings: wild type mouse slices, 250 nM
Description: We examined whether the peptide fragments were capable of influencing Aβ- or hAmylin-induced reduction of hippocampal LTP in mice. Exposure of hippocampal slices from wild-type mice to hAmylin (50 nM) or Aβ (50 nM) depressed LTP induced by a weak tetanization protocol at the CA1 region as previously reported[20],[30]. To determine whether peptides affected hAmylin or Aβ- induced depression of LTP, we applied 250 nM R5 or R14 continuously for 5 min prior to exposure of the hippocampal slices to 50 nM hAmylin or Aβ and the subsequent LTP induction. […] We therefore sought to determine whether peptide fragments were also capable of improving LTP levels in the same TgCRND8 AD mouse model. […] Importantly, doses of the short peptide fragments used in these experiments were equimolar to those used for AC253 and pramlintide in our previous studies[20],[30].
For electrophysiology experiment, hippocampal slices (400-μm thick) were prepared using a vibratome from wild type and TgCRND8 mice (8 month of age, male or female). For long-term potentiation (LTP) measurement, the stimulus strength was set to elicit 40–50% of the maximum fEPSP (field excitatory postsynaptic potential) amplitude and test pulses were delivered once every 30s. LTP was induced by 3-theta-burst stimulation protocol (each burst consisted of four pulses at 100 Hz with a 200-ms interburst interval). All drugs and chemicals were applied directly to the slice via bath perfusion.
Brains were quickly removed from mice following decapitation, placed in a cold artificial cerebral spinal fluid (aCSF) on a vibratome chamber, and transverse sections cut through the hippocampus. The aCSF contained (in millimolar 124 NaCl, 3 KCl, 2.4 CaCl2, 2 MgCl2, 1.25 NaH2PO4, 26 NaHCO3, and 10 D-glucose and was equilibrated with 95 % O2 and 5 % CO2. Hippocampal slices (400-μm thick) were maintained in aCSF-filled holding chamber at room temperature for at least 1 h and individually transferred to the submerged glass bottom recording chamber, which was constantly perfused with aCSF (2 ml/min) at 30 °C. Field excitatory postsynaptic potential (fEPSP) was recorded with a metallic (Pt/Ir) electrode (FHC, Bowdoin, ME) from the stratum radiatum layer of Cornu ammonis 1 region of the hippocampus (CA1) area, and the Schaffer collateral afferents were stimulated with 100-μs test pulses via a bipolar cluster electrode (FHC). For long-term potentiation (LTP) experiments, the stimulus strength was set to elicit 40–50 % of the maximum fEPSP amplitude and test pulses were delivered to Schaffer collaterals once every 30 s. […] Before 3-TBS or drug application, the responses were monitored for at least 10 min to ensure a stable baseline of fEPSP. […]

[3] = biological target: T1, AMY3 receptor (CTR+RAMP3) expressed on HEK293 cells (HEK-AMY3) (Homo sapiens, UniProt O60896+P30988); assay: Peptide array-cell binding assay (SPOT cellulose membrane, GFP-labeled cells); settings: library R1-R14 on cellulose membrane, GFP-labeled HEK-AMY3 vs HEK-WT and HEK-CTR cells
T1 construct: expressed in transfected cells
T1 sequence (P30988 25-474): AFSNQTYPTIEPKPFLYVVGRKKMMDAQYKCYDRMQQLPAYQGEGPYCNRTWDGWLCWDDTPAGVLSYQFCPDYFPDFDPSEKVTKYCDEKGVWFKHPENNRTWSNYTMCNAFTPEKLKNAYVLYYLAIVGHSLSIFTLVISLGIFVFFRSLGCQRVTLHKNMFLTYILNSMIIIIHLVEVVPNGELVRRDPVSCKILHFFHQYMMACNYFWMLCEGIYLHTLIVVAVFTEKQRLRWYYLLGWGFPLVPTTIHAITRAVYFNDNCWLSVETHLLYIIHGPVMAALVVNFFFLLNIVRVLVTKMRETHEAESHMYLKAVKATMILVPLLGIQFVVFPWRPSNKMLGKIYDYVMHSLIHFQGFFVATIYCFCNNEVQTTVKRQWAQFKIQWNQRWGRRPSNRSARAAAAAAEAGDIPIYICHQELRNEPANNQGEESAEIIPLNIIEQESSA
T1 sequence (O60896 24-148): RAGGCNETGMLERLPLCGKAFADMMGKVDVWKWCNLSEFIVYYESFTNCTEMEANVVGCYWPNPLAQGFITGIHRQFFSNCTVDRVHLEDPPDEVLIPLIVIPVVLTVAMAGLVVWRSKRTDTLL
Text: In order to identify shorter peptides with selective recognition and binding to amylin receptor, enhanced metabolic stability and brain penetrability than the linear full length peptide, we designed a peptide library comprised of 14 different sequences, namely, R1-R14. Fragments (R1−R13) are 12 amino acids in length and peptide R14 is 14 amino acids. The initial fragment comprised the first 12 amino acids from the N-terminus of AC253 sequence, and subsequent fragments derived from shifting one amino acid at a time, as depicted in Supplemental Fig. S1A. […] The relative binding affinities of peptide fragments were determined through measuring and plotting the net fluorescence intensity of the bound GFP labeled live cells on each spot as measured with a fluorescence Kodak imager (Supplemental Fig. S1C). […]
To screen peptide library for amylin receptor binding affinity, transfected GFP-positive Human Embryonic Kidney 293 cells that express AMY3 receptor (CTR+RAMP3) as previously reported was used ^8. […] The membrane was scanned at 465 nm excitation and 535 nm emission and the net fluorescence intensity of each peptide spot was quantified using Kodak IS2000MM Image station (GE Healthcare Systems/ART Inc). […]

[4] = Brain uptake of R5 compared with davalintide, wild-type and het CTR mice; type: in vivo, mouse; settings: Cy5.5 labeled, ip 0.1 mmole, intact brain imaged 2 h post-injection, wild-type and het CTR mice, n=5 per group
Description: For peptide R5 brain uptake in comparison to Davlintide, wild-type littermate (C57BL/6 background) mice and heterozygous CTR knockdown mice (50% CTR expression level compared to wild type control mice and presumably with 50% AMY receptor expression level) was used (n=5 in each group). Mouse brains were extracted after 2h from a single injection and fluorescence in brains was quantified as mentioned above.
Supplementary Figure S3: The comparison of brain permeability for R5 and Davalintide.

[5] = parameters: method as in PMID 29067318; settings: mouse, not told; cited from earlier work

Substance: LGRLSQELHRLQTY-NH2 [R14]
- accumulation in the brain at increasing dose [1]: dose-dependent
- half-life [2]: 1.5 h

Substance: LQTYPRTNTGSN [R11]
- effect of peptide alone on hippocampal LTP (hippocampal LTP (CA1)): did not impair LTP
- relative binding to HEK-AMY3 cells in library screening [3]: minimal binding

Substance: davalintide [reference compound]
- brain permeability, R5 versus davalintide [4]: lower brain permeability

Substance: pramlintide: synthetic analog of amylin (KCNTATCATQRLANFLVHSSNNFGPILPPTNVGSNTY-NH2; disulfide 2-7; chains of the INN, looked up)
- brain permeability after systemic administration compared with cAC253 or R5 [5]: lower brain permeability

— paper PMC6662706, “Short amylin receptor antagonist peptides improve memory deficits in Alzheimer’s disease mouse model” (Scientific Reports, 2019)
